The text below walks through data of ChEMBL document CHEMBL1141587, “Substituted oxazolidinones as novel NPC1L1 ligands for the inhibition of cholesterol absorption” (Bioorg Med Chem Lett, 2008).

The target of data set [1] is NPC1-like intracellular cholesterol transporter 1 (Rattus norvegicus, UniProt Q6T3U3). The data set can be described thus: Displacement of [3H]ezetimibe-glucuronide from NPC1L1 in Sprague-Dawley rat brush border membrane.
The subject of another data set is Hamster. The data set can be described thus: Inhibition of cholesterol absorption in chow fed hamster at 3 mg/kg, po. The class given is functional. As to conditions: Cricetinae.
Data set [2] in a line: Half life in rat hepatocytes. The class given is ADME, cell-based, Liver, Hepatocyte.
Data set [3] can be described thus: Metabolic stability assessed as half life in rat liver microsomes. The class given is ADME, Microsome.

NPC1-like intracellular cholesterol transporter 1, sequence (Q6T3U3 21-1331 limits assumed): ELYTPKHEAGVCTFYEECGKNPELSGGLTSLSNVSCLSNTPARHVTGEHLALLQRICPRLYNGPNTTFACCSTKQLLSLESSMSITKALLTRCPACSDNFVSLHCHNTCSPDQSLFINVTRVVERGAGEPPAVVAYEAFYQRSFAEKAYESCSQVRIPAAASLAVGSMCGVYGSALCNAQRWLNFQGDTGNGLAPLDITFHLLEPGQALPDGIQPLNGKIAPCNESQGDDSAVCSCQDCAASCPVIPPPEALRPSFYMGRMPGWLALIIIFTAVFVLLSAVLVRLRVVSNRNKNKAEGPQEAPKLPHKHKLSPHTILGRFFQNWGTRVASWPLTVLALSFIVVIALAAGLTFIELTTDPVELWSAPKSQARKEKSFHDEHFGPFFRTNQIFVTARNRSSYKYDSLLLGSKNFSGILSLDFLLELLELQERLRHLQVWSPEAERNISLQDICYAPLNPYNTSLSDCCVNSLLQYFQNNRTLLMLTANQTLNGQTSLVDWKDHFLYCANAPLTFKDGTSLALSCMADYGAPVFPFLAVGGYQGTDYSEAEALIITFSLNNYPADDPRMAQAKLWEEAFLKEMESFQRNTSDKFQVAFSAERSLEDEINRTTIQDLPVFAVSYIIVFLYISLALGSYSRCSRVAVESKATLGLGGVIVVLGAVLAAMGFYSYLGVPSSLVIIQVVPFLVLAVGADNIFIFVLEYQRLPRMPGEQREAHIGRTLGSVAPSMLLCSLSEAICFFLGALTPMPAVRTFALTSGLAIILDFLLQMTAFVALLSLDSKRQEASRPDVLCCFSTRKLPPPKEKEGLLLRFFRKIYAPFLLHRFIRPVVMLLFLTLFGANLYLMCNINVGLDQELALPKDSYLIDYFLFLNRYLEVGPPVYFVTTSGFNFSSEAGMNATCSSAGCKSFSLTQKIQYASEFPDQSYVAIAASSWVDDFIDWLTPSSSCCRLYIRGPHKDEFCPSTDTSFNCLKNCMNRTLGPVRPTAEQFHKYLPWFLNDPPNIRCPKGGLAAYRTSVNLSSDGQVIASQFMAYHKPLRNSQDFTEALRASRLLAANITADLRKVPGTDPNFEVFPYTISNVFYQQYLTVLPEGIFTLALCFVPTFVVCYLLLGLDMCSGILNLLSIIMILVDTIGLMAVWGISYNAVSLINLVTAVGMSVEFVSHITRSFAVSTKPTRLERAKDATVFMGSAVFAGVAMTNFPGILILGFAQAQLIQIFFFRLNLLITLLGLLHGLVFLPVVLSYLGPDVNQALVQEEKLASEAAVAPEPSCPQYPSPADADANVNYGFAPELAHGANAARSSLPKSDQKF

Take `O=C1O[C@H]([C@H](O)CNc2ccc(F)cc2)[C@@H](c2ccc(O)cc2)N1c1ccc(F)cc1`: the Ki in data set [1] is 19 µM. On the same count and under the same terms, in the case of `O=C(NCc1ccc(F)cc1)[C@H]1OC(=O)N(c2ccc(F)cc2)[C@@H]1c1ccc(O)cc1` it was 30 µM. Consider `O=C1O[C@H]([C@H](O)CCc2ccccc2)[C@@H](c2ccc(O)cc2)N1c1ccccc1F`, for which the Ki in data set [1] was > 50 µM.

`COc1ccc([C@@H]2[C@@H]([C@H](O)COc3ccc(F)cc3)OC(=O)N2c2cccc(F)c2)c(O)c1`: the Ki in data set [1] amounted to 28 µM. The compound further yielded an inhibition in vivo at 3 mg/kg in the data set with Hamster of 0%. As to `O=C1O[C@H]([C@H](O)CCc2ccccc2)[C@@H](c2ccc(O)cc2)N1c1ccc(F)cc1`, in data set [1], the Ki is > 50 µM.

Take `COc1ccc(OC[C@@H](O)[C@H]2OC(=O)N(c3ccc(F)cc3)[C@@H]2c2ccc(O)cc2)cc1`: the inhibition constant (Ki) in data set [1] is > 50 µM. For `COc1ccc([C@@H]2[C@@H]([C@H](O)CCc3ccccc3)OC(=O)N2c2ccc(F)cc2)c(O)c1`, the affinity in data set [1], expressed as Ki, was 4.8 µM. The compound further came in with a half-life in data set [2] of 4.15 h.

In turn, `O=C1O[C@H]([C@H](O)CCc2ccccc2)[C@@H](c2cc(F)ccc2O)N1c1cccc(F)c1` displayed a Ki in data set [1] of 18 µM. Also, in the data set with Hamster, at 3 mg/kg the inhibition in vivo was 0%. With `COc1cccc(OC[C@@H](O)[C@H]2OC(=O)N(c3cccc(F)c3)[C@@H]2c2ccc(OC)cc2O)c1`, the Ki in data set [1] was determined as 8.7 µM.

In the case of `COc1cccc(CN(C)C(=O)[C@H]2OC(=O)N(c3ccc(F)cc3)[C@@H]2c2ccc(O)cc2)c1`, in data set [1], the Ki was 11 µM. In data set [1], `COc1ccc([C@@H]2[C@@H]([C@H](O)CCc3ccccc3)OC(=O)N2c2cccc(F)c2)c(O)c1` displayed a Ki of 2.3 µM. In data set [1], `O=C(O)[C@H]1O[C@@H](Oc2ccc([C@@H]3[C@@H](CC[C@H](O)c4ccc(F)cc4)C(=O)N3c3ccc(F)cc3)cc2)[C@H](O)[C@@H](O)[C@@H]1O` returned an inhibition constant Ki of 0.18 µM. Moreover, the half-life in data set [3] was > 1 h. Consider `CN(Cc1ccc(F)cc1)C(=O)[C@H]1OC(=O)N(c2ccc(F)cc2)[C@@H]1c1ccc(O)cc1`, for which the Ki in data set [1] is 14 µM.

In the case of `O=C1O[C@H]([C@H](O)CCc2ccccc2)[C@@H](c2cccc(F)c2O)N1c1cccc(F)c1`, in data set [1], the Ki was > 50 µM. The inhibition in vivo at 3 mg/kg in the data set with Hamster was found to be 0%. Consider `O=C1O[C@H]([C@H](O)CCc2ccccc2)[C@@H](c2cccc(O)c2)N1c1ccc(F)cc1`, for which, in data set [1], the Ki amounted to 33 µM. Consider `O=C1[C@H](CC[C@H](O)c2ccc(F)cc2)[C@@H](c2ccc(O)cc2)N1c1ccc(F)cc1` [EZETIMIBE], for which the Ki in data set [1] was 0.2 µM. In addition, the half-life in data set [3] was determined as 0.158 h; in data set [2] it was 0.717 h. Compound `COc1ccc([C@@H]2[C@@H](C(=O)N3CCc4ccccc4C3)OC(=O)N2c2cccc(F)c2)c(O)c1` displayed a Ki in data set [1] of 3.6 µM. Same read-out and setting: in the case of `COc1ccc([C@@H]2[C@@H]([C@H](O)CCc3ccccc3)OC(=O)N2c2ccc(F)cc2)c(OC)c1` it was > 50 µM. The compound `O=C1O[C@H]([C@H](O)CCc2ccccc2)[C@@H](c2ccc(O)cc2)N1c1cccc(F)c1` showed a Ki in data set [1] of 11 µM. The same compound gave a half-life in data set [2] of 1.18 h. With `O=C(O)[C@H]1O[C@@H](Oc2ccc([C@@H]3[C@@H]([C@H](O)CCc4ccccc4)OC(=O)N3c3ccc(F)cc3)cc2)[C@H](O)[C@@H](O)[C@@H]1O`, the Ki in data set [1] is > 50 µM. The same measure, in the same setting: as for `COc1ccc(O)c([C@@H]2[C@@H]([C@H](O)CCc3ccccc3)OC(=O)N2c2cccc(F)c2)c1`, the figure is > 50 µM. Compound `O=C1O[C@H]([C@H](O)COc2ccc(F)cc2)[C@@H](c2ccc(O)cc2)N1c1ccc(F)cc1` gave an inhibitory constant (Ki) in data set [1] of 28 µM. The compound also gave a half-life in data set [2] of 1.12 h.

Regarding `Cc1ccc([C@@H]2[C@@H]([C@H](O)CCc3ccccc3)OC(=O)N2c2cccc(F)c2)c(O)c1`, the inhibition constant Ki in data set [1] worked out at 16 µM. The same measure, in the same setting: in the case of `COc1cccc([C@@H]2[C@@H]([C@H](O)CCc3ccccc3)OC(=O)N2c2cccc(F)c2)c1O` it was 5.7 µM; in that of `O=C1O[C@H](CC[C@H](O)c2ccc(F)cc2)[C@@H](c2ccc(O)cc2)N1c1ccc(F)cc1`, 9.9 µM. Same read-out and setting: as for `COc1ccc([C@@H]2[C@@H](CCCc3ccccc3)OC(=O)N2c2ccc(OC)cc2)cc1`, the figure is > 50 µM. As to `O=C(NC[C@H]1OC(=O)N(c2ccc(F)cc2)[C@@H]1c1ccc(O)cc1)c1ccc(F)cc1`, the inhibitory constant (Ki) in data set [1] is > 50 µM.

With `COc1cccc(OC[C@@H](O)[C@H]2OC(=O)N(c3ccc(F)cc3)[C@@H]2c2ccc(O)cc2)c1`, the Ki in data set [1] stood at 15 µM. Regarding `O=C1O[C@H]([C@H](O)CCc2ccccc2)[C@@H](c2ccc(O)cc2O)N1c1ccc(F)cc1`, the Ki in data set [1] is 9.2 µM. In data set [2], the half-life is 2.27 h.

Consider `COc1ccc([C@@H]2[C@@H](C(=O)N(C)Cc3ccc(F)cc3)OC(=O)N2c2cccc(F)c2)c(O)c1`, for which the Ki in data set [1] came out at 1.4 µM. For the same compound, the inhibition in vivo at 3 mg/kg in the data set on Hamster is 0%. Turning to `O=C1O[C@H]([C@H](O)COc2ccc(Cl)cc2)[C@@H](c2ccc(O)cc2)N1c1ccc(F)cc1`, the affinity in data set [1] corresponds to a Ki of 49 µM. In turn, `O=C1O[C@H]([C@H](O)CCc2ccccc2)[C@@H](c2ccc(F)cc2O)N1c1cccc(F)c1` had a Ki in data set [1] of 19 µM. Also, 3 mg/kg produced 0% inhibition in vivo in the data set with Hamster. The compound `O=C1O[C@H]([C@H](O)CCc2ccccc2)[C@@H](c2ccccc2O)N1c1ccc(F)cc1` returned a Ki in data set [1] of 12 µM. Besides, at 3 mg/kg the inhibition in vivo in the data set on Hamster was 0%.
